Experimental data: patent publication US6392055B1, “Synthesis and biological evaluation of analogs of the antimitotic marine natural product curacin A” (The University of Pittsburgh, priority 2000, dated 2002)
Like-named read-outs stand apart in the source and are kept apart here.

What was measured:
[1] = test system: 2008 cells; experiment: Growth inhibition of ovarian carcinoma cells (MTS); assay type: cell-based, human
[2] = test system: MCF-7 human breast carcinoma cells; experiment: Mitotic index by immunofluorescence of phosphorylated core histone; assay type: cell-based; details: for concentration causing maximum mitotic block: 0.0075-15 μM
Description: Further verification of the biological activity of compounds 17a-e was obtained in living tumor cells by quantifying their effect on mitotic index, essentially, counting the number of cells in the mitotic phase of the cell cycle. Antimitotic compounds increase the mitotic index, which can be quantified immunohistochemically using an antibody to a mitosis-specific phosphorylated core histone protein. MCF-7 human breast carcinoma cells were treated with increasing concentrations of compounds 17a-e (7.8-1000 nM), curacin A (3.1-400 nM), and vinblastine (0.08-10 nM) for 14-16 hours. The morphology of the cellular nuclei and the mircrotubule cytoskeleton, as well as the phosphorylation of a core histone protein, were visualized using a multiparameter immunofluorescence approach. […] Compound 17b induced cell rounding and the generalized loss of structured microtubules in the same cells. The mitotic index in drug-treated cells was measured. To assess the relative activity of compounds 17a-e and two known microtubule disrupting drugs, vinblastine and curacin A, the minimum effective concentration of each drug was measured.
Phosphorylation of histone H3 occurs during mitosis and is linked to chromosome condensation. Thus, antimitotic agents cause an accumulation of cells containing […]. Wei, Y.; Mizzen, C. A.; Cook, R. G.; Gorovsky, M. A.; Allis, C. D. Proc. Natl Acad. Sci. USA 1998, 95, 7480. MCF-7 human breast carcinoma cells were treated with increasing concentrations (0.0075-15 μM) of 17mix and 17a-e for 14 hours and mitotic index quantities automatically. […] Vinblastine, a classic mitotic inhibitor, was tested over a range of 0.49 nM to 0.1 μM and caused a maximum accumulation of adherent cells in mitosis of 26%.

[3] = test system: isolated bovine brain tubulin; experiment: Inhibition of GTP/glutamate-induced tubulin polymerization (turbidimetric, 30° C.); assay type: biochemical
[4] = test system: MDA-MB231 cells; experiment: Growth inhibition of breast carcinoma cells (MTS); assay type: cell-based, human
[5] = test system: PC-3 cells; experiment: Growth inhibition of prostate carcinoma cells (MTS); assay type: cell-based, human
[6] = target: tubulin (colchicine site); experiment: Inhibition of [3H]colchicine binding to tubulin; set-up: species or system bovine; details: for IC50: 5 μM [3H]colchicine, 1 μM tubulin; for % CBI 5 μM, (30° C.) / % CBI 50 μM, (30° C.): 30° C. (values in parentheses); for displacement of pre-bound [3H]colchicine from tubulin, 30° C. / displacement of pre-bound [3H]colchicine from tubulin, 37° C.: equimolar (5 μM) concentration
Description: Assays to determine whether 15mix-17mix inhibited binding of [^3H]colchicine to tubulin at both 30° C. and 37° C. were performed. This was accomplished using methods described previously. Kang, G.-J.; Getahun, Z.; Muzaffar, A.; Brossi, A.; Hamel, E. J. Biol. Chem. 1990, 265, 10255; Verdier-Pinard, P.; Lai, J.-Y.; Yoo, H.-D.; Yu, J.; Marquez, B.; Nagle, D. G.; Nambu, M.; White, J. D.; Falck, J. R.; Gerwick, W. H.; Day, B. W.; Hamel, E. Mol. Pharmacol. 1998, 53, 62. Briefly, 5 μM [^3H]colchicine (2.3 TBq/mmol), drug (1, 5, 10, 50, or 250 μM), or vehicle (DMSO, 5% v/v) were incubated at 30° C. for 15 minutes or at 37° C. for 10 minutes with 1 μM tubulin in the presence of 1 M monosodium glutamate, 0.1 M glucose-1-phosphate, 1 mM MgCl2, 1 mM GTP, and 0.5 mg/mL bovine serum albumin. The solutions were filtered through two stacks of DEAE-cellulose filters and the radioactivity in the filtrate was determined by scintillation spectrometry. Each series of determinations included positive controls of 1, 5, and/or 50 μM curacin A.

[7] = Homo sapiens, Ovarian carcinoma cell, 48 h, read-out: GI50 2008 (48 h)
[8] = read-out: 50% Tubulin Polymerization Inhibition Concentration (TPI) IC50, 30° C., 10 μM tubulin
[9] = Homo sapiens, MDA-MB-231, 48 h, read-out: GI50 MDA-MB231 (48 h)
[10] = Homo sapiens, PC-3, 48 h, read-out: GI50 PC-3 (48 h)
[11] = incubation at 30° C. for 15 minutes, read-out: 50% Colchicine Binding Inhibitory Concentration (CBI), 30° C.
[12] = incubation at 37° C. for 10 minutes, read-out: 50% Colchicine Binding Inhibitory Concentration (CBI), 37° C.
[13] = 96 h, read-out: GI50 2008 (ovarian) 96 h
[14] = read-out: GI50 2008 (ovarian) 48 h, 48 h
[15] = 96 h, read-out: GI50 MDA-MB231 (breast) 96 h
[16] = read-out: GI50 MDA-MB231 (breast) 48 h, 48 h
[17] = 96 h, read-out: GI50 PC3 (prostate) 96 h
[18] = read-out: GI50 PC3 (prostate) 48 h, 48 h
[19] = read-out: GI50 ovarian (2008), 48 hours of continuous drug exposure, 48 hours continuous exposure
[20] = 30° C. turbidimetric assay, N=2 over 4 concentrations, read-out: IC50, inhibition of GTP/glutamate-induced assembly of tubulin
[21] = read-out: GI50 breast (MDA-MB231), 48 hours of continuous drug exposure, 48 hours continuous exposure
[22] = read-out: GI50 prostate (PC3), 48 hours of continuous drug exposure, 48 hours continuous exposure

SMILES	GI50 [1, 7]	IC50 [3, 8]	GI50 [4, 9]	GI50 [5, 10]	IC50 [6, 11]	IC50 [6, 12]	GI50 [1, 13]	GI50 [1, 14]	GI50 [4, 15]	GI50 [4, 16]	GI50 [5, 17]	GI50 [5, 18]	% TPI 5 μM ([3]; 5 μM compound)	% CBI 5 μM, (30° C.) ([6]; 5 μM compound)	% CBI 5 μM, 37° C. ([6]; 5 μM compound)	% CBI 50 μM, (30° C.) ([6]; 50 μM compound)	% CBI 50 μM, 37° C. ([6]; 50 μM compound)	further results
C=CC[C@@H](CC[C@@]1(C)C[C@H]1[C@H]1C[C@@H]1CC/C=C\[C@@H]1COC([C@@H]2C[C@@H]2C)=N1)OC [JRCPOX]							23000 ± 1000 nM	18000 ± 4000 nM	24000 nM	18000 ± 4000 nM	24000 ± 1000 nM	49000 ± 1000 nM	83%	(−142 ± 59) %	−8 ± 11%	(−205 ± 17) %	−74 ± 19%	
COc1cc(/C=N\OC/C=C/C=C(\C)CCC(O)c2cccs2)cc(OC)c1OC (stereo not drawn) [JRoxime1]							340 ± 290 nM	240 ± 180 nM	380 ± 200 nM	120 ± 100 nM	530 ± 390 nM	250 nM	100%	(48 ± 12) %	53 ± 2.2%	(57 ± 15) %	37 ± 8%	GI50 [1, 19]: 240 ± 180 nM; IC50 [3, 20]: 170 ± 90 nM; GI50 [4, 21]: 120 ± 100 nM; GI50 [5, 22]: 250 ± 80 nM; displacement of pre-bound [3H]colchicine from tubulin, 30° C. [6]: 48±12%; displacement of pre-bound [3H]colchicine from tubulin, 37° C. [6]: 53±2%
CC[C@]1(O)C[C@@H]2CN(CCc3c([nH]c4ccccc34)[C@@](C(=O)OC)(c3cc4c(cc3OC)N(C)[C@H]3[C@@](O)(C(=O)OC)[C@H](OC(C)=O)[C@]5(CC)C=CCN6CC[C@]43[C@@H]65)C2)C1 [Vinblastine, vinblastine, reference compound]																		maximum accumulation of adherent cells in mitosis ([2]; tested over 0.49 nM to 0.1 μM, 14 hours): 26%
C=CC[C@@H](CC/C(C)=C/C=C/CC/C=C\[C@@H]1CSC([C@@H]2C[C@@H]2C)=N1)OC [curacin A]		780 ± 70 nM			900 ± 300 nM	600 ± 100 nM							98%	(78 ± 2) %	87 ± 9%	(99 ± 1) %	97 ± 0%	GI50 ([1]; 96 h, Table II prints no unit, read-out: GI50 2008 96 h): 26 ± 12 nM; GI50 ([1]; read-out: GI50 2008 48 h, 48 h, Table II prints no unit): 35 ± 7 nM; GI50 ([1]; read-out: GI50 2008 (48 h), 48 h): 35 ± 7 nM; GI50 [1, 19]: 35 ± 7 nM; Percent Tubulin Polymerization Inhibition (TPI), 5 μM ([3]; 5 μM compound): 97.9%; IC50 [3, 20]: 520 ± 210 nM; GI50 ([4]; 96 h, Table II prints no unit, read-out: GI50 MDA 96 h): 64 ± 7 nM; GI50 ([4]; read-out: GI50 MDA 48 h, 48 h, Table II prints no unit): 186 ± 226 nM; GI50 ([4]; read-out: GI50 MDA-MB231 (48 h), 48 h): 96 ± 60 nM; GI50 [4, 21]: 96 ± 60 nM; GI50 ([5]; 96 h, Table II prints no unit, read-out: GI50 PC3 96 h): 48 ± 8 nM; GI50 ([5]; read-out: GI50 PC3 48 h, 48 h, Table II prints no unit): 50 ± 9 nM; GI50 ([5]; read-out: GI50 PC-3 (48 h), 48 h): 50 ± 9 nM; GI50 [5, 22]: 50 ± 9 nM; Percent Colchicine Binding Inhibition (CBI), 5 μM ([6]; 5 μM compound): 84.9 ± 1.07 %; Percent Colchicine Binding Inhibition (CBI), 5 μM, re-test value ([6]; 5 μM compound, re-test (in parentheses)): (95.0 ± 0.7*) %; Percent Colchicine Binding Inhibition (CBI), 50 μM ([6]; 50 μM compound): 96.2 ± 0.7 %; Percent Colchicine Binding Inhibition (CBI), 50 μM, re-test value ([6]; 50 μM compound, re-test (in parentheses)): (97.7 ± 0.0*) %; displacement of pre-bound [3H]colchicine from tubulin, 30° C. [6]: 78±2%; displacement of pre-bound [3H]colchicine from tubulin, 37° C. [6]: 87±9%

Continued, in another order:

GI50 [1, 7]	IC50 [3, 8]	GI50 [4, 9]	GI50 [5, 10]	IC50 [6, 11]	IC50 [6, 12]	GI50 [1, 13]	GI50 [1, 14]	GI50 [4, 15]	GI50 [4, 16]	GI50 [5, 17]	GI50 [5, 18]	SMILES	% TPI 5 μM ([3]; 5 μM compound)	% CBI 5 μM, (30° C.) ([6]; 5 μM compound)	% CBI 5 μM, 37° C. ([6]; 5 μM compound)	% CBI 50 μM, (30° C.) ([6]; 50 μM compound)	% CBI 50 μM, 37° C. ([6]; 50 μM compound)	further results
360 ± 1 nM	1400 nM	230 ± 60 nM	620 ± 50 nM	9000 ± 7000 nM	19000 ± 2000 nM							COc1cc(/C=C\CC/C=C/C=C(\C)CCC(O)c2cc3ccccc3s2)cc(OC)c1OC (stereo not drawn) [Compound 17b, (4E,6E,10Z)-11-(3,4,5-Trimethoxyphenyl)-4-methyl-1-benzothiophen-2ylundeca-4,6,10-trien-1ol]						fraction of cells exhibiting condensed chromatin and increased core histone phosphorylation ([2]; 14-16 hours): large increase
280 ± 20 nM	1200 nM	280 ± 40 nM	380 ± 80 nM	39000 ± 10000 nM	9000 ± 3000 nM							COc1cc(/C=C\CC/C=C/C=C(\C)CCC(O)c2cccs2)cc(OC)c1OC (stereo not drawn) [Compound 17c, (4E,6E,10Z)-11-(3,4,5-Trimethoxyphenyl)-4-methyl-1-thiophen-2-ylundeca-4,6,10-trien-1-ol]						concentration causing maximum mitotic block ([2]; 14 hours): sub-micromolar
270 ± 50 nM	1600 nM	120 ± 70 nM	310 ± 200 nM	9000 ± 4000 nM	28000 ± 8000 nM							COc1cc(/C=C\CC/C=C/C=C(\C)CCC(O)c2cc3ccccc3o2)cc(OC)c1OC (stereo not drawn) [Compound 17e, (4E,6E,10Z)-11-(3,4,5-Trimethoxyphenyl)-4-methyl-1-benzofuran-2-ylundeca-4,6,10-trien-1-ol]						concentration causing maximum mitotic block ([2]; 14 hours): sub-micromolar
						250 ± 50 nM	300 ± 170 nM	250 ± 20 nM	320 ± 200 nM	450 ± 90 nM	240 ± 70 nM	C=CC[C@@H](CC/C(C)=C/C=C/CC/C=C\c1csc(C(C)(C)C)n1)OC [JRC4]	100%	(38 ± 2) %	−21 ± 16%	(43 ± 19) %	5 ± 13%	
						23000 ± 2000 nM	17000 ± 3000 nM	5800 ± 3600 nM	14000 ± 3000 nM	28000 ± 1000 nM	30000 ± 6000 nM	C=CCC(CCC(C)=CC=CCCC=CC1COC(C=Cc2ccccc2)=N1)OC (stereo not drawn) [JRC5]	29%	(9 ± 6) %	1 ± 12%	(−220 ± 16) %	−89 ± 7%	
						> 50000 nM	> 50000 nM	> 50000 nM	> 50000 nM	> 50000 nM	> 50000 nM	COc1cc(C=NOCC2CC2CCC(C)c2cccs2)cc(OC)c1OC (stereo not drawn) [JRoxime3]	3%	(−10 ± 10) %	−30 ± 6%	(18 ± 6) %	−30 ± 7%	
